From patent US6527690B2, “Purification of phenyl ester salts” (priority 2000, dated 2003)

Tests used:
[1] = Hydrolysis of phenyl ester salt in water at elevated temperature (water crystallization); type: physicochemical
Source text: Phenyl ester salts may also be recrystallized from aqueous solutions. At first glance, the use of water (or an alcohol) as a solvent to replace acetic acid typically used for the purification of crude phenyl ester salts is not an obvious choice. Japanese Patent No. 6-306,042 (1995), for example, reports that compounds related to phenyl ester salts in water or alcohol are subject to hydrolysis or solvolysis at elevated temperatures. Indeed, initial work on water crystallization confirmed that phenyl ester salts, such as Compound (1), did undergo hydrolysis at elevated temperatures. Typical losses of Compound (1) were in the range of 5-7.5% at 90° C.

[2] = Measurement of perhydrolysis rate of formulated beads; conditions: 5 minutes, 10° C.
Description: To determine its perhydrolysis rate, the phenyl ester salt was formulated into beads. The beads were typically formulated using a powder or solid phenyl ester salt with a surfactant and a chelating agent. A typical formulation is shown below: […]
The dry materials were weighed, charged into a one-gallon sigma blade mixer and dry mixed for 1 minute. While mixing, water was added and mixing was continued for about 17.5 minutes. The wet mix bulk density was determined by measuring weight/volume. The material was extruded using the Luwa DG-L I at 90 rpm (using a 0.7 mm/I mm, 19.7% open area die). The extrusion was rounded for 1 minute at 1,350 rpm in the Luwa QJ-230 Marumerizer, followed by drying for 20 minutes at 115° C. in a Luwa MDB-400 fluid bed.
Perhydrolysis rate is the percentage of a phenyl ester salt that has undergone perhydrolysis in a specified period of time and at a specific temperature. For the purposes of these examples, perhydrolysis rate is measured at 5 and 30 minutes intervals at 10° C.
The perhydrolysis rate of a phenyl ester salt is measured by adding a weighed quantity of formulated beads comprising the phenyl ester salt, a reference detergent, and sodium […] monohydrate to a synthetic hard water solution in a chilled dissolution vessel (Sotax Model AT7, modified with a emersion chiller). The solution is maintained at 10° C. and stirred at 150 rpm. […]

sodium nonanamidohexanoyloxybenzenesulfonate [Compound (1)]
Hydrolysis ([1]; 90° C., operating at a pH range of 4-6): about 2.2%
Typical losses by hydrolysis ([1]; water crystallization at 90° C., pH not controlled): 5-7.5%
Five minute perhydrolysis rate ([2]; beads prepared from crystallized Compound (1)): 20%
Five minute perhydrolysis rate ([2]; beads prepared from spray-dried Compound (1)): 100%
